# Like-named read-outs stand apart in the source and are kept apart here.
# Assays:
# ASBT = target: T1, ASBT (Homo sapiens, UniProt Q12908); assay: [3H]taurocholate uptake, apparent Ki for ASBT; type: cell-based; details: read-out: inhibitory constant (Ki) for ASBT
# T1 construct: expressed in transfected cells
# T1 sequence (Q12908 1-348): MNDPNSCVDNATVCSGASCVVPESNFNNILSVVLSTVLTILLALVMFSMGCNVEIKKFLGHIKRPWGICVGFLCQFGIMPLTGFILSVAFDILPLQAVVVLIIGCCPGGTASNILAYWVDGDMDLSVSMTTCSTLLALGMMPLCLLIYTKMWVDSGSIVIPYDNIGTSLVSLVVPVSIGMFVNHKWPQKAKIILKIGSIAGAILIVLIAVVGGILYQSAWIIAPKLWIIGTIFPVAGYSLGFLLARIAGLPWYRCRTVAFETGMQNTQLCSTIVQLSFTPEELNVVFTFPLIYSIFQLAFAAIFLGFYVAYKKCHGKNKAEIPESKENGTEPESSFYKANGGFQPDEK
# HBV (genotype D) = assay: In vitro HBV infection of NTCP-HepG2 cells, second study (HBeAg, HBc); type: cell-based, hepatitis B virus; details: for IC50: Hepatitis B virus
# Experimental: In a second study, recombinant HBV (genotype D) was produced in vitro as described in the literature (König et al. 2014). […] The myr-preS12-48 peptide (500 nM, genotype D) was used as control inhibitor. All infection experiments were performed in NTCP-HepG2 cells cultured in HGM in the presence of the corresponding compounds with different concentrations, 4% PEG-8000 (Sigma-Aldrich, Darmstadt, Germany), 2% DMSO (Carl Roth, Karlsruhe, Germany) and 100 ng/ml EGF (PeproTech, Hamburg, Germany) as final concentration each. Recombinant HBV was diluted in HGM to a final concentration of 2.5×10^10 HBV-genome copies per well (7×10^8 IU per well) and was added to the cells for 6 h. Subsequently, cells were washed with HGM and cultured in HGM supplemented with 2% DMSO. Medium was changed every 2-3 days until cells were fixed at day 9 p.i. with 3.8% paraformaldehyde (Sigma-Aldrich) in PBS, for 30 min at RT. The cells were immunostained at 37° C. for 1 h (1:400 dilution). For detection of HBV core (HBc) protein expression, a polyclonal anti-HBc antiserum from an immunized guinea pig (1:500 dilution, Eurogentec, Seraing, Belgium) was used as primary antibody and an Alexa Fluor 488-conjugated goat anti-guinea-pig-IgG-antibody (1:400 dilution, Thermo Fisher Scientific) as secondary antibody. Nuclei were stained with DAPI (0.5 μg/ml, Thermo Fisher Scientific). […] HBV-infected cells secrete the soluble HBeAg, which is a widely-accepted quantitative marker for productive HBV infection in cell culture experiments. In this study, HBeAg secreted from infected cells into the cell culture supernatant was determined of supernatant collected from day 5 to 9 p.i. using the Architect HBeAg assay, an automated in vitro diagnostic system (Abbott Laboratories, Wiesbaden, Germany).
# Determination of IC50 values was done by nonlinear regression analysis using the equation log(inhibitor) vs. response settings of the GraphPad Prism 6.0 software (GraphPad). Data of [^3H]TC transport and [^3H]preS1 binding are expressed as means±SD from quadruplicate determinations. […]
smiles,measurement,setting,value
"CCCCC1CN(c2ccccc2)c2cc(SC)c(O/C=C(\F)C(=O)O)cc2S(=O)(=O)N1C (stereo not shown) [Compound 1, (Z)-3-((3-butyl-2-methyl-7-(methylthio)-1,1-dioxido-5-phenyl-2,3,4,5-tetrahydro-1,2,5-benzothiadiazepin-8-yl)oxy)-2-fluoroacrylic acid]",Ki,ASBT,2410 nM
same,IC50,HBV (genotype D); read-out: IC50 in vitro HBV infection (HBc),16.1 nM
same,IC50,HBV (genotype D); read-out: IC50 in vitro HBV infection (HBeAg),19.1 nM
same,HBeAg secretion relative to cut off value,"HBV (genotype D); second study, highest inhibitor concentration 1000 nM",above the cut off value

# — patent US20230398125A1, “TREATING HEPATITIS” (Albireo AB, priority 2022, published 2023)
